# Columns and labels:
# ovine COX-1 = target: T1, ovine COX-1 (Ovis aries, UniProt P05979); assay: In vitro ovine COX-1 enzyme inhibition (chemiluminescent enzyme assay kit, Cayman); type: biochemical; conditions: ovine COX-1/COX-2 assay kit; means of two determinations, deviation < 10% of the mean
# T1 construct: purchased Cayman Chemical, Ann Arbor, MI, USA
# T1 sequence (P05979 25-600): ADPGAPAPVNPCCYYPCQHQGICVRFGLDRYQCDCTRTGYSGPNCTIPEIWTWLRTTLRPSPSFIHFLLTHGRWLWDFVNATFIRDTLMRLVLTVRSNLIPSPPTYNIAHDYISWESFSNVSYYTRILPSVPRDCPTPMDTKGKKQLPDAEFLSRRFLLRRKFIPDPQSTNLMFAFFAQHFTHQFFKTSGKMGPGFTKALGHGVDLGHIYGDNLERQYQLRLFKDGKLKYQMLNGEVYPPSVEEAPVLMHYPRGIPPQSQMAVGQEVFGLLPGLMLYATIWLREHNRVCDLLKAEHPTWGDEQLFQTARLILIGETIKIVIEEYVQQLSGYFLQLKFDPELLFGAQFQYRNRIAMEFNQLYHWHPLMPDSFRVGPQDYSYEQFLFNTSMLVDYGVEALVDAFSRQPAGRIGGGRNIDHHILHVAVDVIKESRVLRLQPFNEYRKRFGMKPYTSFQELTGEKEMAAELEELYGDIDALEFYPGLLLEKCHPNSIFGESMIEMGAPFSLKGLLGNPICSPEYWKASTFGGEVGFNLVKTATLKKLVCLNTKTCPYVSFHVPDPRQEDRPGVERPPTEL
# Method: (§1) The ability of the test compounds listed in Table 1 to inhibit ovine COX-1 and COX-2 (IC50 value, μM) was determined using the chemiluminescent enzyme assay kit (Cayman Chemical, Ann Arbor, MI, USA) according to our previously reported method.
# ovine COX-2 = target: T2, ovine COX-2 (Ovis aries, UniProt P79208); assay: In vitro ovine COX-2 enzyme inhibition (chemiluminescent enzyme assay kit, Cayman); type: biochemical; conditions: for Selectivity index (SI): In vitro COX-2 selectivity index (COX-1 IC50/COX-2 IC50); for IC50: ovine COX-1/COX-2 assay kit, means of two determinations, deviation < 10% of the mean
# T2 construct: purchased Cayman Chemical, Ann Arbor, MI, USA
# T2 sequence (P79208 17-603): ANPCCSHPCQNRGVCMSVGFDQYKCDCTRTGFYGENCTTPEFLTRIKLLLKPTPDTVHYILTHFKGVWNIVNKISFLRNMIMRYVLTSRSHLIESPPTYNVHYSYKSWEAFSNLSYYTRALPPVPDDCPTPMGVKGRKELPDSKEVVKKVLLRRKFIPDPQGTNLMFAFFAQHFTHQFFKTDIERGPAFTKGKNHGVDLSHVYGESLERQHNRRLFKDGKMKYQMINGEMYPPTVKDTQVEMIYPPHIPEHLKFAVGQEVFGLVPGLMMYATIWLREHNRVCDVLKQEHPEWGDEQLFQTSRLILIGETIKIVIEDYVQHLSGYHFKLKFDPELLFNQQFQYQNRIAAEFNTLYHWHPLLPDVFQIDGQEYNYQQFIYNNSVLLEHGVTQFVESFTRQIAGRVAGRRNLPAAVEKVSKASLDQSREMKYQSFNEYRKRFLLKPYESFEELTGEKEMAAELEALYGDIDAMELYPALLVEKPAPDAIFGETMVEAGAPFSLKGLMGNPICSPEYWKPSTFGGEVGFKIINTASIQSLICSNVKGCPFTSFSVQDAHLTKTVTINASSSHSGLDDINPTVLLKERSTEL
# Method: as §1
IC50 (ovine COX-1),Selectivity index (SI) (ovine COX-2),IC50 (ovine COX-2),melting point,Compound
10.8 µM,98.2,0.11 µM,187 °C,"CS(=O)(=O)c1ccc(-c2cc(=O)c3ccccc3o2)cc1 [Compound 3, 2-[4-(Methylsulfonyl)phenyl]-4H-chromen-4-one]"
9.79 µM,75.3,0.13 µM,198 to 199 °C,"CS(=O)(=O)c1ccc(-c2oc3ccccc3c(=O)c2O)cc1 [Compound 4, 3-Hydroxy-2-[4-(methylsulfonyl)phenyl]-4H-chromen-4-one]"
12.7 µM,126.5,0.1 µM,92 to 93 °C,"COc1c(-c2ccc(S(C)(=O)=O)cc2)oc2ccccc2c1=O [Compound 5a, 3-Methoxy-2-[4-(methylsulfonyl)phenyl]-4H-chromen-4-one]"
13.4 µM,149.1,0.09 µM,137 to 138 °C,"CCOc1c(-c2ccc(S(C)(=O)=O)cc2)oc2ccccc2c1=O [Compound 5b, 3-Ethoxy-2-[4-(methylsulfonyl)phenyl]-4H-chromen-4-one]"
13.8 µM,173.1,0.08 µM,116 to 118 °C,"C=CCOc1c(-c2ccc(S(C)(=O)=O)cc2)oc2ccccc2c1=O [Compound 5c, 3-(Allyloxy)-2-[4-(methylsulfonyl)phenyl]-4H-chromen-4-one]"
20.1 µM,287.1,0.07 µM,140 to 142 °C,"CS(=O)(=O)c1ccc(-c2oc3ccccc3c(=O)c2OCc2ccccc2)cc1 [Compound 5d, 3-(Benzyloxy)-2-[4-(methylsulfonyl)phenyl]-4H-chromen-4-one]"
15.6 µM,195.6,0.08 µM,175 °C,"CC(=O)Oc1c(-c2ccc(S(C)(=O)=O)cc2)oc2ccccc2c1=O [Compound 6, 2-[4-(Methylsulfonyl)phenyl]-4-oxo-4H-chromen-3-yl acetate]"

# From publication PMC4727773, “Design, Synthesis, and Biological Evaluation of New 2-Phenyl-4H-chromen-4-one Derivatives as Selective Cyclooxygenase-2 Inhibitors” (Scientia Pharmaceutica, 2014)
